Reference: patent US10519159B2, “Antiviral aliphatic ester prodrugs of tenofovir” (Merck Sharp & Dohme Corp., priority 2016, dated 2019)
Like-named read-outs stand apart in the source and are kept apart here.

Columns and labels:
HIV-1 (H9/IIIB strain) = assay: Multiple round HIV-1 infection assay (Viking assay) in MT4-GFP cells; assay type: cell-based
Procedure: Assessing Antiviral Potency in a Multiple Round HIV-1 Infection Assay (Viking Assay)
The antiviral activity of the tenofovir prodrugs of the Examples herein was assessed in an assay that measures the rate of replication of HIV in cell culture, termed the Viking assay (Viral KINetics in Green cells) and performed as follows. HIV-1 replication was monitored using MT4-gag-GFP clone D3 (hereafter designated MT4-GFP), which are MT-4 cells modified to harbor a GFP reporter gene, the expression of which is dependent on the HIV-1 expressed proteins tat and rev. Productive infection of an MT4-GFP cell with HIV-1 results in GFP expression approximately 24 h post-infection. MT4-GFP cells were maintained at 37° C./5% CO2/90% relative humidity in RPMI 1640 supplemented with 10% fetal bovine serum, 100 U/ml penicillin/streptomycin, and 400 μg/ml G418 to maintain the reporter gene. For infections, MT4-GFP cells were placed in the same medium lacking G418 and infected overnight with HIV-1 (H9/IIIB strain) virus at an approximate multiplicity of infection of 0.01 in the same incubation conditions. Cells were then washed and re-suspended in either RPMI 1640 supplemented with 10% or 50% normal human serum (NHS) at 1.6×10^5 cells/mL (10% NHS or 50% NHS, respectively). Compound plates were prepared by dispensing compounds dissolved in DMSO into wells of 384 well poly-D-lysine-coated plates (0.2 μl/well) using an ECHO acoustic dispenser. Each compound was tested in a 10-point serial 3-fold dilution (typical final concentrations: 8.4 μM-0.42 nM). Controls included no inhibitor (DMSO only) and a combination of three antiviral agents (efavirenz, indinavir, an in-house integrase strand transfer inhibitor at final concentrations of 4 μM each). Cells were added (50 μL/well) to compound plates and the infected cells were maintained at 37° C./5% CO2/90% relative humidity.
Infected cells were quantified at two time points, ˜48 h and ˜72 h post-infection, by counting the number of green cells in each well using an Acumen eX3 scanner. The increase in the number of green cells over ˜24 h period gives the reproductive ratio, R0, which is typically 5-15 and has been shown experimentally to be in logarithmic phase (data not shown). Inhibition of R0 is calculated for each well, and IC50s determined by non-linear 4-parameter curve fitting.

[1] = Prodrug stability assay in bio-relevant media (FaSSIF with pancreatin), GI tract stability; assay type: in vitro ADME
Procedure: Prodrug Stability Assay in Bio-Relevant Media
The following assay was employed to evaluate the stability of the prodrugs in simulated gastrointestinal tract conditions. Preparation of fasted state simulated intestinal fluid (FaSSIF) using Phares SIF Powder was carried out according to protocols from Phare Drug Delivery AG (Baselland, Switzerland). For sample preparation, 10 μL stock solutions (10 mM) of prodrug substance in DMSO was added to 990 μL of 0.5 mg/mL Pancreatin solution (Fisher CAS #8049-47-6) in FaSSIF. Two samples were prepared for each compound. If the sample was a clear solution, it was directly analyzed by HPLC. If the sample was not clear, the sample was […], maintained at 37° C. and observed 5 h later. If the sample was clear, HPLC analysis was directly performed. If the sample was still not clear, the sample was diluted with 100% ACN and assayed by HPLC. All the samples were vortexed for 3 min and observed before injection. For the diluted samples, the area is multiplied by a dilution factor when the data is analyzed. The analysis was carried out with an Agilent 1100 series HPLC with autosampler. The column was a Poroshell 120 EC-C18, 4.6×50 mm, 2.7 μm. The flow rate was 1.8 mL/min, and the injection volume was 5 or 10 μL. UV detection was in the range 210-400 nm. The mobile phase consisted of solvent A (water plus 10 mM tetrabutylammonium bromide) and solvent B (acetonitrile) with a gradient of: 90% solvent A at 0 min, changing to 95% solvent B over 6 min, maintaining for 1.5 min, then reverting to 90% solvent A over 1.6 min. The HPLC peak area of the prodrug at 5 h was divided by the HPLC peak area of the prodrug at 0 h, to generate the % claimed parent ratio, which is summarized in Table 1 for gastrointestinal (GI) Tract stability.

[2] = Human immunodeficiency virus 1, IIIB, Table 2, L-Ala comparison compounds, MT4-GFP cells, HIV-1 H9/IIIB, 10% normal human serum, read-out: Viking, IC50 (10% NHS)
[3] = Human immunodeficiency virus 1, IIIB, Table 2, L-Ala comparison compounds, MT4-GFP cells, HIV-1 H9/IIIB, 50% normal human serum, read-out: Viking, IC50 (50% NHS)
[4] = Table 2, L-Ala comparison compounds, % parent at 5 h vs 0 h, pancreatin in FaSSIF
[5] = Table 1, MT4-GFP cells infected with HIV-1 H9/IIIB, 10% normal human serum, read-out: Viking, IC50 (10% NHS)
[6] = Table 1, MT4-GFP cells infected with HIV-1 H9/IIIB, 50% normal human serum, read-out: Viking, IC50 (50% NHS)
[7] = Table 1, % parent: HPLC peak area of prodrug at 5 h / 0 h, 0.5 mg/mL pancreatin in FaSSIF, 37° C.
[8] = Human immunodeficiency virus 1, IIIB, Table 1, MT4-GFP cells infected with HIV-1 H9/IIIB, 10% normal human serum, read-out: Viking, IC50 (10% NHS)
[9] = Human immunodeficiency virus 1, IIIB, Table 1, MT4-GFP cells infected with HIV-1 H9/IIIB, 50% normal human serum, read-out: Viking, IC50 (50% NHS)

CCCOC(=O)[C@H](C)NP(=O)(CO[C@H](C)Cn1cnc2c(N)ncnc21)OCCC(=O)OC(C)C (single isomer, unassigned) [Compound 15A, reference compound]
IC50 (HIV-1 (H9/IIIB strain); [2]): 101 nM
IC50 (HIV-1 (H9/IIIB strain); [3]): 1220 nM
GI Tract stability [1, 4]: 60.1%

CCCOC(=O)[C@H](C)NP(=O)(CO[C@H](C)Cn1cnc2c(N)ncnc21)OCC[C@H](C)C(=O)OC(C)C (single isomer, unassigned) [Compound 16A, reference compound]
IC50 (HIV-1 (H9/IIIB strain); [2]): 213 nM
IC50 (HIV-1 (H9/IIIB strain); [3]): 1830 nM
GI Tract stability [1, 4]: 51.3%

CCCOC(=O)[C@H](C)NP(=O)(CO[C@H](C)Cn1cnc2c(N)ncnc21)OCc1ccc(F)cc1C(=O)OC(C)C (single isomer, unassigned) [Compound 17A, reference compound]
IC50 (HIV-1 (H9/IIIB strain); [2]): 35 nM
IC50 (HIV-1 (H9/IIIB strain); [3]): 2230 nM
GI Tract stability [1, 4]: 20.3%

CCCOC(=O)C(C)(C)NP(=O)(CO[C@H](C)Cn1cnc2c(N)ncnc21)OCCC(=O)OC(C)C (single isomer, unassigned) [Example 1A]
IC50 (HIV-1 (H9/IIIB strain); [5]): 23.2 nM
IC50 (HIV-1 (H9/IIIB strain); [6]): 102 nM

CCCOC(=O)C(C)(C)NP(=O)(CO[C@H](C)Cn1cnc2c(N)ncnc21)OCCC(=O)OC(C)C (single isomer, unassigned) [Example 1B]
IC50 (HIV-1 (H9/IIIB strain); [5]): 5.09 nM
IC50 (HIV-1 (H9/IIIB strain); [6]): 13.8 nM
GI Tract stability [1, 7]: 99.35%

CC(C)OC(=O)CCOP(=O)(CO[C@H](C)Cn1cnc2c(N)ncnc21)NC(C)(C)C(=O)OC(C)C (single isomer, unassigned) [Example 2A]
IC50 (HIV-1 (H9/IIIB strain); [5]): 22.4 nM
IC50 (HIV-1 (H9/IIIB strain); [6]): 69.8 nM
GI Tract stability [1, 7]: 100.30%

CC(C)OC(=O)CCOP(=O)(CO[C@H](C)Cn1cnc2c(N)ncnc21)NC(C)(C)C(=O)OC(C)C (single isomer, unassigned) [Example 2B]
IC50 (HIV-1 (H9/IIIB strain); [5]): 601 nM
IC50 (HIV-1 (H9/IIIB strain); [6]): 622 nM

CC(C)OC(=O)C1(COP(=O)(CO[C@H](C)Cn2cnc3c(N)ncnc32)NC(C)(C)C(=O)OC(C)C)CC1 (single isomer, unassigned) [Example 3A]
IC50 (HIV-1 (H9/IIIB strain); [5]): 88.7 nM
IC50 (HIV-1 (H9/IIIB strain); [6]): 521 nM

CC(C)OC(=O)C1(COP(=O)(CO[C@H](C)Cn2cnc3c(N)ncnc32)NC(C)(C)C(=O)OC(C)C)CC1 (single isomer, unassigned) [Example 3B]
IC50 (HIV-1 (H9/IIIB strain); [5]): 16.8 nM
IC50 (HIV-1 (H9/IIIB strain); [6]): 70.9 nM

CCOC(=O)C1(CCOP(=O)(CO[C@H](C)Cn2cnc3c(N)ncnc32)NC(C)(C)C(=O)OC(C)C)CC1 (single isomer, unassigned) [Example 4A]
IC50 (HIV-1 (H9/IIIB strain); [5]): 252 nM
IC50 (HIV-1 (H9/IIIB strain); [6]): 756 nM

CCOC(=O)C1(CCOP(=O)(CO[C@H](C)Cn2cnc3c(N)ncnc32)NC(C)(C)C(=O)OC(C)C)CC1 (single isomer, unassigned) [Example 4B]
IC50 (HIV-1 (H9/IIIB strain); [5]): 7.84 nM
IC50 (HIV-1 (H9/IIIB strain); [6]): 22.7 nM
GI Tract stability [1, 7]: 99.72%

CC(C)OC(=O)[C@@H](C)CCOP(=O)(CO[C@H](C)Cn1cnc2c(N)ncnc21)NC(C)(C)C(=O)OC(C)C (single isomer, unassigned) [Example 5A]
IC50 (HIV-1 (H9/IIIB strain); [5]): 7.52 nM
IC50 (HIV-1 (H9/IIIB strain); [6]): 33.6 nM

CC(C)OC(=O)[C@@H](C)CCOP(=O)(CO[C@H](C)Cn1cnc2c(N)ncnc21)NC(C)(C)C(=O)OC(C)C (single isomer, unassigned) [Example 5B]
IC50 (HIV-1 (H9/IIIB strain); [5]): 540 nM
IC50 (HIV-1 (H9/IIIB strain); [6]): 2220 nM

CCCOC(=O)C(C)(C)NP(=O)(CO[C@H](C)Cn1cnc2c(N)ncnc21)OCC[C@H](C)C(=O)OC(C)C (single isomer, unassigned) [Example 6A]
IC50 (HIV-1 (H9/IIIB strain); [5]): 5.54 nM
IC50 (HIV-1 (H9/IIIB strain); [6]): 15.5 nM

CCCOC(=O)C(C)(C)NP(=O)(CO[C@H](C)Cn1cnc2c(N)ncnc21)OCC[C@H](C)C(=O)OC(C)C (single isomer, unassigned) [Example 6B]
IC50 (HIV-1 (H9/IIIB strain); [5]): 73.1 nM
IC50 (HIV-1 (H9/IIIB strain); [6]): 246 nM

CCCOC(=O)C(C)(C)N[P@@](=O)(CO[C@H](C)Cn1cnc2c(N)ncnc21)OCc1ccc(F)cc1C(=O)OC(C)C (single isomer, unassigned) [Example 7A]
IC50 (HIV-1 (H9/IIIB strain); [8]): 107 nM
IC50 (HIV-1 (H9/IIIB strain); [9]): 654 nM

CCCOC(=O)C(C)(C)N[P@](=O)(CO[C@H](C)Cn1cnc2c(N)ncnc21)OCc1ccc(F)cc1C(=O)OC(C)C (single isomer, unassigned) [Example 7B]
IC50 (HIV-1 (H9/IIIB strain); [8]): 1.08 nM
IC50 (HIV-1 (H9/IIIB strain); [9]): 5.55 nM
GI Tract stability [1, 7]: 95.0%

CC(C)OC(=O)C(C)(C)COP(=O)(CO[C@H](C)Cn1cnc2c(N)ncnc21)NC(C)(C)C(=O)OC(C)C (single isomer, unassigned) [Example 9A]
IC50 (HIV-1 (H9/IIIB strain); [5]): 173 nM
IC50 (HIV-1 (H9/IIIB strain); [6]): 562 nM

CC(C)OC(=O)C[C@H](C)OP(=O)(CO[C@H](C)Cn1cnc2c(N)ncnc21)NC(C)(C)C(=O)OC(C)C (single isomer, unassigned) [Example 10B]
IC50 (HIV-1 (H9/IIIB strain); [5]): 284 nM
IC50 (HIV-1 (H9/IIIB strain); [6]): 1070 nM

CCCOC(=O)C(C)(C)NP(=O)(CO[C@H](C)Cn1cnc2c(N)ncnc21)OCCc1cccc(C(=O)OC(C)C)c1 (single isomer, unassigned) [Example 11B]
IC50 (HIV-1 (H9/IIIB strain); [5]): 45.8 nM
IC50 (HIV-1 (H9/IIIB strain); [6]): 302 nM

CCCSC(=O)C(C)(C)NP(=O)(CO[C@H](C)Cn1cnc2c(N)ncnc21)OCCC(=O)OC(C)C (single isomer, unassigned) [Example 13B]
IC50 (HIV-1 (H9/IIIB strain); [5]): 99.6 nM
IC50 (HIV-1 (H9/IIIB strain); [6]): 248 nM

CCCOC(=O)C(C)(C)NP(=O)(CO[C@H](C)Cn1cnc2c(N)ncnc21)OCc1cccc(C(=O)OC(C)C)c1 (single isomer, unassigned) [Example 14B]
IC50 (HIV-1 (H9/IIIB strain); [5]): 16.7 nM
IC50 (HIV-1 (H9/IIIB strain); [6]): 114 nM

CCCOC(=O)[C@H](C)NP(=O)(CO[C@H](C)Cn1cnc2c(N)ncnc21)OCCC(=O)OC(C)C (stereo partly drawn) [Compound 15B, reference compound]
IC50 (HIV-1 (H9/IIIB strain); [2]): 340 nM

CCCOC(=O)[C@H](C)NP(=O)(CO[C@H](C)Cn1cnc2c(N)ncnc21)OCC[C@H](C)C(=O)OC(C)C (stereo partly drawn) [Compound 16B, reference compound]
IC50 (HIV-1 (H9/IIIB strain); [2]): 730 nM

CCCOC(=O)[C@H](C)NP(=O)(CO[C@H](C)Cn1cnc2c(N)ncnc21)OCc1ccc(F)cc1C(=O)OC(C)C (stereo partly drawn) [Compound 17B, reference compound]
IC50 (HIV-1 (H9/IIIB strain); [2]): 570 nM
